Reference: patent publication US10080756B2, “Combination methods for treating cancers” (Gilead Sciences, Inc., priority 2014, dated 2018)
Like-named read-outs stand apart in the source and are kept apart here. One block for each compound: values may come before it.

Assays:
[1] = in vivo; cited from earlier work
DHL-10 = test: Cell Titer Glo viability assay, DHL-10, alone or with compound of Formula I (Example 3); details: for Fold shift: EC50 alone vs +300 nM Compound of Formula I
Procedure: All procedures were performed at Gilead Sciences, Inc. in Branford, Conn. […] Compound plates were diluted 1:100 in RPMI without serum or additives but containing either 1% DMSO or 3 μM of the compound of Formula I creating a 10× stock. The DLBCL cell line, DHL-10 was plated at 10,000 cells per well in RPMI supplemented with 10% FBS and 100 U/L penicillin-streptomycin. To each well containing cells, 11 μl of 10× compound mixture in serum-free media was added in a final concentration of 0.2% DMSO and cells were incubated at 37° C. in 5% CO2 for 72 hours. Cell viability was assessed using Cell Titer Glo (CTG, Promega, Madison, Wis.) following the manufacturer's protocol on an Envision plate reader (Perkin Elmer, Waltham, Mass.). CTG signals were recorded for individual compound treatments and combinations. EC50 values were determined using a four parameter variable slope model with GraphPad Prism 6.0 software.

Mino = test: Cell Titer Glo viability assay, Mino; type: cell-based; details: Homo sapiens, read-out: Inhibition of Viability, EC50
Procedure: (§1) All procedures were performed at Gilead Sciences, Inc. in Branford, The compound of formula (I), cyclophosphamide, doxorubicin and vincristine sulfate were dissolved in DMSO to prepare stock solutions that were serially diluted three-fold in DMSO in a 96 well plate format at 1000× so the final starting assay concentrations tested would be 10 μM, 200 μM, 10 μM, and 1 μM respectively, for each compound. Compound plates were diluted 1:100 in RPMI without serum or additives creating a 10× stock. Cells were seeded into a 96-well plate at 10,000-20,000 cells per well in 100 μl of growth media appropriate to the cell line supplemented with 100 U/L penicillin-streptomycin. OCI-Ly3, OCI-Ly4 and OCI-Ly7 were grown in Iscove's+20% FBS, OCI-Ly19 was grown in alphaMEM+20% FBS, and all other cell lines were grown in RPMI+10% FBS. To each well, 11 μl of 10× compound was added in a final concentration of 0.1% DMSO and cells were incubated at 37° C. in 5% CO2 for 72 hours. Cell viability was assessed with Cell Titer Glo (Promega, Madison, Wis.) following the manufacturer's protocol on an Envision plate reader (Perkin Elmer, Waltham, Mass.). EC50 values were determined using a four parameter variable slope model with GraphPad Prism 6.0 software. All EC50 values represent mean values of from duplicate dose response curves.

OCI-LY7 = test: Cell Titer Glo viability assay, OCI-LY7; type: cell-based; details: Homo sapiens, read-out: Inhibition of Viability, EC50
Procedure: as §1

WSU-FSCCL = test: Cell Titer Glo viability assay, WSU-FSCCL; type: cell-based; details: read-out: Inhibition of Viability, EC50
Procedure: as §1

OCI-LY19 = test: Cell Titer Glo viability assay, OCI-LY19; type: cell-based; details: Homo sapiens, read-out: Inhibition of Viability, EC50
Procedure: as §1

WSU-NHL = test: Cell Titer Glo viability assay, WSU-NHL; type: cell-based; details: Homo sapiens, read-out: Inhibition of Viability, EC50
Procedure: as §1

OCI-LY4 = test: Cell Titer Glo viability assay, OCI-LY4; type: cell-based; details: read-out: Inhibition of Viability, EC50
Procedure: as §1

[2] = system: 10 diffuse large B-cell lymphoma (DLBCL), 4 multiple myeloma (MM), 2 follicular lymphoma (FL), and 1 mantle cell lymphoma (MCL) cell lines; test: Cell Titer Glo viability assay, summary over all cell lines tested; type: cell-based; details: at concentrations <10000 nM
Procedure: as §1

SU-DHL-6 = test: Cell Titer Glo viability assay, SU-DHL-6; type: cell-based; details: Homo sapiens, read-out: Inhibition of Viability, EC50
Procedure: as §1

Karpas 422 = test: Cell Titer Glo viability assay, Karpas 422; type: cell-based; details: Homo sapiens, read-out: Inhibition of Viability, EC50
Procedure: as §1

SU-DHL-2 = test: Cell Titer Glo viability assay, SU-DHL-2; type: cell-based; details: Homo sapiens, read-out: Inhibition of Viability, EC50
Procedure: as §1

KMS-11 = test: Cell Titer Glo viability assay, KMS-11; type: cell-based; details: Homo sapiens, read-out: Inhibition of Viability, EC50
Procedure: as §1

MM1.S = test: Cell Titer Glo viability assay, MM1.S; type: cell-based; details: Homo sapiens, read-out: Inhibition of Viability, EC50
Procedure: as §1

OCI-LY3 = test: Cell Titer Glo viability assay, OCI-LY3; type: cell-based; details: Homo sapiens, read-out: Inhibition of Viability, EC50
Procedure: as §1

RPMI-8266 = test: Cell Titer Glo viability assay, RPMI-8266; type: cell-based; details: read-out: Inhibition of Viability, EC50
Procedure: as §1

Pfeiffer = test: Cell Titer Glo viability assay, Pfeiffer; type: cell-based; details: Homo sapiens, read-out: Inhibition of Viability, EC50
Procedure: as §1

SU-DHL-4 = test: Cell Titer Glo viability assay, SU-DHL-4; type: cell-based; details: Homo sapiens, read-out: Inhibition of Viability, EC50
Procedure: as §1

OPM-2 = test: Cell Titer Glo viability assay, OPM-2; type: cell-based; details: Homo sapiens, read-out: Inhibition of Viability, EC50
Procedure: as §1

SU-DHL-10 = test: Cell Titer Glo viability assay, SU-DHL-10; type: cell-based; details: Homo sapiens, read-out: Inhibition of Viability, EC50
Procedure: as §1

[3] = Cell Titer Glo viability assay, summary over all cell lines tested; type: cell-based; details: B-cell; range over the 17 cell lines of Table 1; read-out: EC50 values to inhibit cell viability, range over cell lines
Procedure: as §1

[4] = Homo sapiens, 72 h, read-out: Inhibition of cell viability EC50, No Compound of Formula I
[5] = read-out: Inhibition of cell viability EC50, +300 nM Compound of Formula I, DHL-10, in combination with 300 nM compound of Formula I, 72 hours

SMILES: CC[C@]1(O)C[C@@H]2CN(CCc3c([nH]c4ccccc34)[C@@](C(=O)OC)(c3cc4c(cc3OC)N(C)[C@H]3[C@@](O)(C(N)=O)[C@H](O)[C@]5(CC)C=CCN6CC[C@]43[C@@H]65)C2)C1 [Vindesine, vindesine]
serum half-life [1]: 24 h

SMILES: CC(=O)O[C@H]1C(=O)[C@@]2(C)[C@H]([C@H](OC(=O)c3ccccc3)[C@]3(O)C[C@H](OC(=O)[C@H](O)[C@@H](NC(=O)c4ccccc4)c4ccccc4)C(C)=C1C3(C)C)[C@]1(OC(C)=O)CO[C@@H]1C[C@@H]2O [Taxol, taxol]
EC50 (DHL-10; [4]): 7.1 nM
EC50 (DHL-10; [5]): 5.6 nM

SMILES: O=P1(N(CCCl)CCCl)NCCCO1 (centres unmarked) [Cyclophosphamide, cyclophosphamide]
EC50 (Mino; MINO, 72 h): > 10000 nM
EC50 (OCI-LY7; OCI-Ly7, 72 h): > 10000 nM
EC50 (WSU-FSCCL; 72 h): > 10000 nM
EC50 (OCI-LY19; OCI-LY19, 72 h): > 10000 nM
EC50 (WSU-NHL; 72 h): > 10000 nM
EC50 (OCI-LY4; 72 h): > 10000 nM
inhibition of cell viability in any of the cell lines tested [2]: did not show inhibition cell viability
EC50 (SU-DHL-6; SU-DHL-6, 72 h): > 10000 nM
EC50 (Karpas 422; KARPAS-422, 72 h): > 10000 nM
EC50 (SU-DHL-2; SU-DHL-2, 72 h): > 10000 nM
EC50 (KMS-11; KMS-11, 72 h): > 10000 nM
EC50 (MM1.S; 72 h): > 10000 nM
EC50 (OCI-LY3; OCI-Ly3, 72 h): > 10000 nM
EC50 (RPMI-8266; RPMI8266, 72 h): > 10000 nM
EC50 (Pfeiffer; 72 h): > 10000 nM
EC50 (SU-DHL-4; SU-DHL-4, 72 h): > 10000 nM
EC50 (OPM-2; OPM-2, 72 h): > 10000 nM
EC50 (SU-DHL-10; SU-DHL10, 72 h): > 10000 nM

SMILES: COc1cc2c(c(OC)c1OC)-c1ccc(OC)c(=O)cc1[C@@H](NC(C)=O)CC2 [Colchicine, colchicine]
Fold shift (DHL-10; DHL-10): 1.0
EC50 (DHL-10; [4]): 13.5 nM
EC50 (DHL-10; [5]): 14.2 nM

EC50 (OCI-LY7; OCI-LY7, DLBCL, single agent, 72 hours): 199 nM
EC50 (OCI-LY19; OCI-LY19, DLBCL, single agent, 72 hours): 3.1 nM
EC50 (OCI-LY4; OCI-LY4, DLBCL, single agent, 72 hours): 37 nM
EC50 (SU-DHL-6; SU-DHL-6, DLBCL, single agent, 72 hours): 125 nM
EC50 (Karpas 422; Karpas 422, DLBCL, single agent, 72 hours): 305 nM
EC50 (SU-DHL-2; SU-DHL-2, DLBCL, single agent, 72 hours): 216 nM
EC50 (MM1.S; MM, single agent, 72 hours): 66 nM
EC50 (OCI-LY3; OCI-LY3, DLBCL, single agent, 72 hours): 26 nM
EC50 (SU-DHL-4; SU-DHL-4, DLBCL, single agent, 72 hours): 215 nM
EC50 (SU-DHL-10; SU-DHL10, SU-DHL-10, DLBCL, single agent, 72 hours): 195 nM
SMILES: COc1cccc2c1C(=O)c1c(O)c3c(c(O)c1C2=O)C[C@@](O)(C(=O)CO)C[C@@H]3O[C@H]1C[C@H](N)[C@H](O)[C@H](C)O1 [Doxorubicin, doxorubicin]
EC50 (Mino; Mino, MCL, single agent, 72 hours): 114 nM
EC50 (WSU-FSCCL; WSU-FSCCL, FL, single agent, 72 hours): 52 nM
EC50 (WSU-NHL; FL, single agent, 72 hours): 128 nM
EC50 [3]: 3.1 to 557 nM
EC50 (KMS-11; KMS-11, MM, single agent, 72 hours): 469 nM
EC50 (RPMI-8266; RPMI8266, RPMI-8266, MM, single agent, 72 hours): 176 nM
EC50 (Pfeiffer; DLBCL, single agent, 72 hours): 198 nM
EC50 (DHL-10; [4]): 152 nM
EC50 (DHL-10; [5]): 161 nM
EC50 (OPM-2; OPM-2, MM, single agent, 72 hours): 557 nM

SMILES: COc1ccc(/C=C\c2cc(OC)c(OC)c(OC)c2)cc1O [Combretastatin A4, combretastatin A4]
Fold shift (DHL-10; DHL-10): 1.2
EC50 (DHL-10; [5]): 4.8 nM
EC50 (DHL-10; read-out: Inhibition of cell viability EC50, No Compound of Formula I, DHL-10, compound alone, 72 hours): 5.9 nM
